Where “and” joins values, the source holds several entries; their conditions need not be identical. Equal values may be shown once. Read-outs that look alike come from different tables or passages of the source.
How the values were obtained:
[1] = Human pharmacokinetics, dose-ranging study; format: in vivo
Procedure: In a dose-ranging study, the pharmacokinetics (PK), safety and tolerability of RX-5902 at various oral doses were evaluated. Subjects with advanced or metastatic solid tumors were administered capsules containing RX-5902 at daily doses of 25-775 mg once weekly, 250-300 mg three times a week, 150-300 mg five times a week, or 300-350 mg seven times a week of RX-5902 for up to 6 dosing cycles. Each cycle consisting of 1-5 doses of RX-5902 per week for 3 weeks followed by 1 week of rest, or 5-7 doses of RX-5902 per week for 4 weeks without any rest per 4-week cycle. All but one subject had fasted from food for at least 8 hours before administration. One subject received 300 mg RX-5902 in fed state. Plasma concentrations were measured on Days 1 and 15, for 48 hrs, using a validated LC-MS/MS assay, and noncompartmental pharmacokinetic parameters were calculated using Phoenix WinNonlin, Version 6.4.
Preliminary PK data after a single administration is presented in FIG. 1 (for Subjects #1-11) and Table 3.

[2] = test system: MDA-MB-231 cells; assay: Cytotoxicity of RX-5902 after p68 knock-down with p68-siRNA; format: cell-based, human; conditions: IC50 concentration of RX-5902
[3] = oral capsule, 300 mg, 1 per week, Day 1, fasted
[4] = oral capsule, 300 mg, 5 per week, Day 1, fasted
[5] = oral capsule, 775 mg, 1 per week, Day 1, fasted

COc1cc(OC)cc(N2CCN(C(=O)Nc3nc4cc(F)ccc4nc3OC)CC2)c1 [RX-5902, 4-(3,5-dimethoxyphenyl)-N-(7-fluoro-3-methoxyquinoxalin-2-yl)piperazine-1-carboxamide]
AUC(0-t) ([1]; human, plasma, po, 300 mg, oral capsule, 300 mg, 1 per week, Day 1, fed, read-out: AUC0-48): 10700 ng·h/mL
Cmax ([1]; human, plasma, po, 300 mg, oral capsule, 300 mg, 1 per week, Day 1, fed, read-out: Cmax): 779 ng/mL
half-life ([1]; human, plasma, po, 300 mg, oral capsule, 300 mg, 1 per week, Day 1, fed, read-out: T1/2 (converted)): 11.9 h
Tmax ([1]; human, plasma, po, 300 mg, oral capsule, 300 mg, 1 per week, Day 1, fed, read-out: Tmax): 4 h
AUC(0-t) ([1]; human, plasma, po, 300 mg, oral capsule, 300 mg, 3 per week, Day 1, fasted, read-out: AUC0-24): 3850 ng·h/mL
AUC(0-t) ([1]; human, plasma, po, 300 mg, oral capsule, 300 mg, 3 per week, Day 1, fasted, read-out: AUC0-48): 4560 ng·h/mL
Cmax ([1]; human, plasma, po, 300 mg, oral capsule, 300 mg, 3 per week, Day 1, fasted, read-out: Cmax): 288 ng/mL
half-life ([1]; human, plasma, po, 300 mg, oral capsule, 300 mg, 3 per week, Day 1, fasted, read-out: T1/2 (converted)): 10.3 h
Tmax ([1]; human, plasma, po, 300 mg, oral capsule, 300 mg, 3 per week, Day 1, fasted, read-out: Tmax): 6 h
AUC(0-t) ([1]; human, plasma, po, 300 mg, oral capsule, 300 mg, 3 per week, Day 15, fasted, read-out: AUC0-24): 3050 ng·h/mL
AUC(0-t) ([1]; human, plasma, po, 300 mg, oral capsule, 300 mg, 3 per week, Day 15, fasted, read-out: AUC0-48): 4140 ng·h/mL
Cmax ([1]; human, plasma, po, 300 mg, oral capsule, 300 mg, 3 per week, Day 15, fasted, read-out: Cmax): 301 ng/mL
Tmax ([1]; human, plasma, po, 300 mg, oral capsule, 300 mg, 3 per week, Day 15, fasted, read-out: Tmax): 2 h
AUC(0-t) ([1]; human, plasma, po, 300 mg, oral capsule, 300 mg, 5 per week, Day 1, fasted, read-out: AUC0-24): 3800 ng·h/mL
Cmax ([1]; human, plasma, po, 300 mg, oral capsule, 300 mg, 5 per week, Day 1, fasted, read-out: Cmax): 317 ng/mL
AUC(0-t) ([1]; human, plasma, po, 300 mg, oral capsule, 300 mg, 5 per week, Day 15, fasted, read-out: AUC0-24): 3840 ng·h/mL
Tmax ([1]; human, plasma, po, 300 mg, oral capsule, 300 mg, 5 per week, Day 15, fasted, read-out: Tmax): 1.5 h
AUC(0-t) ([1]; human, plasma, po, 300 mg, oral capsule, 300 mg, 7 per week, Day 1, fasted, read-out: AUC0-24): 2990 ng·h/mL
AUC(0-t) ([1]; human, plasma, po, 300 mg, oral capsule, 300 mg, 7 per week, Day 1, fasted, read-out: AUC0-48): 3180 ng·h/mL
Cmax ([1]; human, plasma, po, 300 mg, oral capsule, 300 mg, 7 per week, Day 15, fasted, read-out: Cmax): 1250 ng/mL
Tmax ([1]; human, plasma, po, 300 mg, oral capsule, 300 mg, 7 per week, Day 15, fasted, read-out: Tmax): 6 h
AUC(0-t) ([1]; human, plasma, po, 350 mg, oral capsule, 350 mg, 7 per week, Day 1, fasted, read-out: AUC0-24): 4820 ng·h/mL
AUC(0-t) ([1]; human, plasma, po, 350 mg, oral capsule, 350 mg, 7 per week, Day 1, fasted, read-out: AUC0-48): 4960 ng·h/mL
Cmax ([1]; human, plasma, po, 350 mg, oral capsule, 350 mg, 7 per week, Day 1, fasted, read-out: Cmax): 750 ng/mL
Tmax ([1]; human, plasma, po, 350 mg, oral capsule, 350 mg, 7 per week, Day 1, fasted, read-out: Tmax): 1.5 h
AUC(0-t) ([1]; human, plasma, po, 425 mg, oral capsule, 425 mg, 1 per week, Day 1, fasted, read-out: AUC0-24): 9320 ng·h/mL
AUC(0-t) ([1]; human, plasma, po, 425 mg, oral capsule, 425 mg, 1 per week, Day 1, fasted, read-out: AUC0-48): 14700 ng·h/mL
Cmax ([1]; human, plasma, po, 425 mg, oral capsule, 425 mg, 1 per week, Day 1, fasted, read-out: Cmax): 660 ng/mL
Tmax ([1]; human, plasma, po, 425 mg, oral capsule, 425 mg, 1 per week, Day 1, fasted, read-out: Tmax): 2 h
AUC(0-t) ([1]; human, plasma, po, 575 mg, oral capsule, 575 mg, 1 per week, Day 1, fasted, read-out: AUC0-24): 6820 ng·h/mL
AUC(0-t) ([1]; human, plasma, po, 575 mg, oral capsule, 575 mg, 1 per week, Day 1, fasted, read-out: AUC0-48): 10100 ng·h/mL
Cmax ([1]; human, plasma, po, 575 mg, oral capsule, 575 mg, 1 per week, Day 1, fasted, read-out: Cmax): 707 ng/mL
Tmax ([1]; human, plasma, po, 575 mg, oral capsule, 575 mg, 1 per week, Day 1, fasted, read-out: Tmax): 4 h
AUC(0-t) ([1]; human, plasma, po, 775 mg, oral capsule, 775 mg, 1 per week, Day 1, fasted, read-out: AUC0-24): 3540 ng·h/mL
AUC(0-t) ([1]; human, plasma, po, 775 mg, oral capsule, 775 mg, 1 per week, Day 1, fasted, read-out: AUC0-48): 5010 ng·h/mL
Cmax ([1]; human, plasma, po, 775 mg, oral capsule, 775 mg, 1 per week, Day 1, fasted, read-out: Cmax): 487 ng/mL
half-life ([1]; human, plasma, po, 775 mg, oral capsule, 775 mg, 1 per week, Day 1, fasted, read-out: T1/2 (converted)): 9.7 h
Tmax ([1]; human, plasma, po, oral capsules, all subjects, after dosing, read-out: Tmax, observed range): 1 to 6 h
half-life ([1]; human, plasma, po, oral capsules, all subjects, read-out: Apparent terminal T1/2, mean value (converted)): 13 h
half-life ([1]; human, plasma, po, oral capsules, all subjects, read-out: Apparent terminal T1/2, range): 5.8 to 27.6 h
AUC0-24 [1, 3]: 4170 ng·h/mL
AUC0-48 [1, 3]: 5552 ng·h/mL
Cmax [1, 3]: 452 ng/mL
T1/2 [1, 3]: 15.6 h
AUC0-24 [1, 4]: 4607 ng·h/mL and 3855 ng·h/mL
Cmax [1, 4]: 549 ng/mL and 419 ng/mL and 624 ng/mL
AUC0-24 ([1]; oral capsule, 300 mg, 5 per week, Day 15, fasted): 4878 ng·h/mL
AUC0-24 [1, 5]: 6925 ng·h/mL
AUC0-48 [1, 5]: 8126 ng·h/mL
Cmax [1, 5]: 654 ng/mL
apparent, short lag time ([1]; oral capsules, sometimes displayed): 0.25 h
share of AUC0-t (0-48 hours) observed by 24 hours ([1]; oral capsules, usually): over 75%
cytotoxic effect in p68-siRNA-transfected cells [2]: protected MDA-MB-231 cells from the cytotoxic effects
